Data from US10058534B2, “Benzothiophene derivatives and compositions thereof as selective estrogen receptor degraders” (NOVARTIS AG, priority 2013, dated 2018).
pIC50: −log10 of the molar value.

Target: ERα (Homo sapiens (Human), UniProt P03372)
Assay: ERα degradation (MCF7 cells), in-cell Western
Type: cell-based
Details: MCF7 cells; for % ERα remaining: remaining ERα protein at 10 μM ligand, relative to DMSO control
Experimental: ERα Degradation (MCF7 Cells)
The column titled MCF7 IC50 reports the inflection point of the inhibition of transcription in MCF7 cells as described above. Percentage ERα remaining reports the remaining ERα protein measured at 10 μM concentration of the ligand as described above. The column ERα IC50 reports the inflection point of the degradation in response to the ligand concentration.

[1] = inflection point of the degradation in response to ligand concentration

Chain of ERα (P03372 whole entry): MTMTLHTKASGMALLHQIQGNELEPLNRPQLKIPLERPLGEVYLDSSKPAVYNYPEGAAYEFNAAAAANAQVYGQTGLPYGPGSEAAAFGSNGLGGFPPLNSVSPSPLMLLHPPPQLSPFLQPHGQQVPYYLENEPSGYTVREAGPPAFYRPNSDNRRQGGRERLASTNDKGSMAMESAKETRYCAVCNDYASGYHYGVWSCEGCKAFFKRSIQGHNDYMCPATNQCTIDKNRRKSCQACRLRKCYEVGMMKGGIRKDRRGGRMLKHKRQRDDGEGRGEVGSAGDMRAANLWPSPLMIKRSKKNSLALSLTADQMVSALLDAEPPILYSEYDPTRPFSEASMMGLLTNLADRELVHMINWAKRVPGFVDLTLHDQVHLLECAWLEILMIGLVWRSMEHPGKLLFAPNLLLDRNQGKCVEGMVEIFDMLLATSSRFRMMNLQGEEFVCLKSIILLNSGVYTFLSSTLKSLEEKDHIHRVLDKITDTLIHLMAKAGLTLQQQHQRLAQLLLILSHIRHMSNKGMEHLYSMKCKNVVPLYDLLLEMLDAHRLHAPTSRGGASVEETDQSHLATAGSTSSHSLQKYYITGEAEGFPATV

SMILES	% ERα remaining	pIC50 [1]	DC50 (inflection point of the degradation in response to ligand concentration, read-out: ERα IC50)
CN(c1ccc(/C=C/C(=O)O)cc1)c1c(-c2ccc(O)cc2)sc2cc(O)ccc12 [Example 30, (E)-3-(4-((6-hydroxy-2-(4-hydroxyphenyl)benzo[b]thiophen-3-yl)(methyl)amino)phenyl)acrylic acid]	30%		
O=C(/C=C/c1ccc(Oc2c(-c3ccc(O)cc3)sc3cc(O)ccc23)cc1)NCCC(F)(F)F [Example 31, (E)-3-(4-((6-hydroxy-2-(4-hydroxyphenyl)benzo[b]thiophen-3-yl)oxy)phenyl)-N-(3,3,3-trifluoropropyl)acrylamide]	45%	9.00	
Cc1cc(F)ccc1-c1sc2cc(O)ccc2c1Oc1ccc(/C=C/C(=O)NO)cc1 [Example 32, (E)-3-(4-((2-(4-fluoro-2-methylphenyl)-6-hydroxybenzo [b]thiophen-3-yl)oxy)phenyl)-N-hydroxyacrylamide]	25%		17 nM
O=C(/C=C/c1ccc(Oc2c(-c3ccc(F)cc3)sc3cc(O)ccc23)cc1)NCCC(F)(F)F [Example 33, (E)-3-(4-((2-(4-fluorophenyl)-6-hydroxybenzo[b]thiophen-3-yl)oxy)phenyl)-N-(3,3,3-trifluoropropyl)-acrylamide]	32%	8.00	
CCOC(=O)/C=C/c1ccc(Oc2c(-c3ccc(O)cc3)sc3cc(O)ccc23)cc1C [Example 34, (E)-ethyl 3-(4-((6-hydroxy-2-(4-hydroxyphenyl)benzo[b]thiophen-3-yl)oxy)-2-methylphenyl)acrylate]	42%	6.95	
CCOC(=O)/C=C/c1ccc(Oc2c(-c3ccc(O)cc3)sc3cc(O)ccc23)c(C)c1 [Example 35, (E)-ethyl 3-(4-((6-hydroxy-2-(4-hydroxyphenyl)benzo[b]thiophen-3-yl)oxy)-3-methylphenyl)acrylate]	33%		
COC(=O)/C=C/c1ccc(Oc2c(-c3ccc(F)cc3)sc3cc(O)ccc23)cc1 [Example 36, (E)-methyl 3-(4-((2-(4-fluorophenyl)-6-hydroxybenzo[b]thiophen-3-yl)oxy)phenyl)-acrylate]	28%		
COC(=O)/C=C/c1ccc(Oc2c(-c3ccc(O)cc3)sc3c(F)c(O)c(F)cc23)cc1 [Example 37, (E)-methyl 3-(4-((5,7-difluoro-6-hydroxy-2-(4-hydroxyphenyl)-benzo[b]thiophen-3-yl)oxy)phenyl)acrylate]	38%		
O=C(O)/C=C/c1ccc(Oc2c(-c3ccc(O)cc3)sc3c(F)c(O)c(F)cc23)cc1 [Example 38, (E)-3-(4-((5,7-difluoro-6-hydroxy-2-(4-hydroxyphenyl)benzo[b]thiophen-3-yl)oxy)phenyl)acrylic acid]	25%	7.66	
O=C(O)/C=C/c1ccc(Oc2c(-c3ccc(O)cc3)sc3c(F)c(O)ccc23)cc1 [Example 39, (E)-3-(4-((7-fluoro-6-hydroxy-2-(4-hydroxyphenyl)benzo[b]thiophen-3-yl)oxy)phenyl)acrylic acid]	24%	7.15	
O=C(O)/C=C/c1ccc(Oc2c(-c3ccc(O)c(F)c3)sc3cc(O)ccc23)cc1 [Example 40, (E)-3-(4-((2-(3-fluoro-4-hydroxyphenyl)-6-hydroxybenzo[b]thiophen-3-yl)oxy)phenyl)acrylic acid]	23%	7.66	
Cc1nnc(/C=C/c2ccc(Oc3c(-c4ccc(F)cc4C)sc4cc(O)ccc34)cc2)o1 [Example 46, (E)-2-(4-fluoro-2-methylphenyl)-3-(4-(2-(5-methyl-1,3,4-oxadiazol-2-yl)vinyl)phenoxy)benzo[b]thiophen-6-ol]	41%	8.30	
Cc1cc(F)ccc1-c1sc2cc(O)ccc2c1Oc1ccc(/C=C/c2n[nH]c(=O)o2)cc1 [Example 48, (E)-5-(4-((2-(4-fluoro-2-methylphenyl)-6-hydroxybenzo [b]thiophen-3-yl)oxy)styryl)-1,3,4-oxadiazol-2(3H)-one]	44%		
Cc1nnc(/C=C/c2ccc(Oc3c(-c4ccc(F)cc4C)sc4cc(O)ccc34)cc2)[nH]1 [Example 49, (E)-2-(4-fluoro-2-methylphenyl)-3-(4-(2-(5-methyl-4H-1,2,4-triazol-3-yl)vinyl)phenoxy)benzo[b]thiophen-6-ol]	28%		
O=c1nc(/C=C/c2ccc(Oc3c(-c4ccc(O)cc4)sc4cc(O)ccc34)cc2)cc(C(F)(F)F)[nH]1 [Example 50, (E)-4-(4-((6-hydroxy-2-(4-hydroxyphenyl)-benzo[b]thiophen-3-yl)oxy)styryl)-6-(trifluoromethyl) pyrimidin-2(1H)-one]	36%	7.66	
Cc1cc(F)ccc1-c1sc2cc(O)ccc2c1Oc1ccc(/C=C/c2nnnn2C)cc1 [Example 51, (E)-2-(4-fluoro-2-methylphenyl)-3-(4-(2-(1-methyl-1H-tetrazol-5-yl)vinyl)phenoxy)-benzo[b]thiophen-6-ol]	41%	7.96	
CNC(=O)/C=C/c1ccc(Oc2c(-c3ccc(C(F)(F)F)cc3)sc3cc(O)ccc23)cc1 [Example 63, (E)-3-(4-((6-hydroxy-2-(4-(trifluoromethyl)-phenyl)benzo[b]thiophen-3-yl)oxy)phenyl)-N-methylacrylamide]	26%	7.62	

Further lines, results first:

% ERα remaining	pIC50 [1]	DC50 (inflection point of the degradation in response to ligand concentration, read-out: ERα IC50)	SMILES
41%	6.65		Cn1nnnc1/C=C/c1ccc(Oc2c(-c3ccc(F)cc3)sc3cc(O)ccc23)cc1 [Example 52, (E)-2-(4-fluorophenyl)-3-(4-(2-(1-methyl-1H-tetrazol-5-yl)vinyl)phenoxy)benzo [b]thiophen-6-ol]
43%			CCCn1nnnc1/C=C/c1ccc(Oc2c(-c3ccc(F)cc3C)sc3cc(O)ccc23)cc1 [Example 53, (E)-2-(4-fluoro-2-methylphenyl)-3-(4-(2-(1-propyl-1H-tetrazol-5-yl)vinyl)phenoxy) benzo[b]thiophen-6-ol]
39%	7.22		Cn1nnnc1/C=C/c1ccc(Oc2c(-c3ccc(O)cc3)sc3cc(O)ccc23)cc1 [Example 54, (E)-2-(4-hydroxyphenyl)-3-(4-(2-(1-methyl-1H-tetrazol-5-yl)vinyl)phenoxy)benzo[b]thiophen-6-ol]
37%			Cc1cc(/C=C/C(=O)O)ccc1Oc1c(-c2ccc(O)cc2)sc2cc(O)ccc12 [Example 57, (E)-3-(4-((6-hydroxy-2-(4-hydroxyphenyl)-benzo[b]thiophen-3-yl)oxy)-3-methylphenyl)acrylic acid]
17%	7.52		O=C(O)/C=C/c1ccc(Oc2c(-c3ccc(OC(F)(F)F)cc3)sc3cc(O)ccc23)cc1 [Example 59, (E)-3-(4-((6-hydroxy-2-(4-(trifluoromethoxy)-phenyl)benzo[b]thiophen-3-yl)oxy)phenyl)-acrylic acid]
23%	7.59		O=C(O)/C=C/c1ccc(Oc2c(-c3ccccc3)sc3cc(O)ccc23)cc1 [Example 60, (E)-3-(4-((6-hydroxy-2-phenylbenzo[b]thiophen-3-yl)oxy)phenyl)-acrylic acid]
26%	7.74		Cc1cc(-c2sc3cc(O)ccc3c2Oc2ccc(/C=C/C(=O)O)cc2)ccc1O [Example 61, (E)-3-(4-((6-hydroxy-2-(4-hydroxy-3-methylphenyl)benzo[b]thiophen-3-yl)oxy)phenyl)acrylic acid]
42%			C/C(=C\C(=O)O)c1ccc(Oc2c(-c3ccc(O)cc3)sc3cc(O)ccc23)cc1 [Example 62, (E)-3-(4-((6-hydroxy-2-(4-hydroxyphenyl)-benzo[b]thiophen-3-yl)oxy)phenyl)but-2-enoic acid]
48%			NC(=O)/C=C/c1ccc(Oc2c(-c3ccc(O)cc3)sc3cc(O)ccc23)cc1 [Example 64, (E)-3-(4-((6-hydroxy-2-(4-hydroxyphenyl)-benzo[b]thiophen-3-yl)oxy)phenyl)acrylamide]
47%			O=C(/C=C/c1ccc(Oc2c(-c3ccc(O)cc3)sc3cc(O)ccc23)cc1)NCCO [Example 65, (E)-3-(4-((6-hydroxy-2-(4-hydroxyphenyl)benzo[b]thiophen-3-yl)oxy)phenyl)-N-(2-hydroxyethyl)acrylamide]
40%	7.24		CNC(=O)/C=C/c1ccc(Oc2c(-c3ccc(O)cc3)sc3cc(O)ccc23)cc1 [Example 66, (E)-3-(4-((6-hydroxy-2-(4-hydroxyphenyl)benzo[b]thiophen-3-yl)oxy)phenyl)-N-methylacrylamide]
36%	6.46		CNC(=O)/C=C/c1ccc(Oc2c(-c3ccc(F)cc3)sc3cc(O)ccc23)cc1 [Example 67, (E)-3-(4-((2-(4-fluorophenyl)-6-hydroxybenzo[b]thiophen-3-yl)oxy)phenyl)-N-methylacrylamide]
43%	6.79		CNC(=O)/C=C/c1ccc(Oc2c(-c3ccc(O)c(C)c3)sc3cc(O)ccc23)cc1 [Example 68, (E)-3-(4-((6-hydroxy-2-(4-hydroxy-3-methylphenyl)benzo[b]thiophen-3-yl)oxy)phenyl)-N-methylacrylamide]
41%			CCCn1cncc1/C=C/c1ccc(Oc2c(-c3ccc(O)cc3)sc3cc(O)ccc23)cc1 [Example 75, (E)-2-(4-hydroxyphenyl)-3-(4-(2-(1-propyl-1H-imidazol-5-yl)vinyl)phenoxy)benzo [b]thiophen-6-ol]
42%	7.33		Cc1cc(F)ccc1-c1sc2cc(O)ccc2c1Oc1ccc(/C=C/c2nnc(C3CC3)o2)cc1 [Example 76, (E)-3-(4-(2-(5-cyclopropyl-1,3,4-oxadiazol-2-yl)vinyl)phenoxy)-2-(4-fluoro-2-methylphenyl)benzo[b] thiophen-6-ol]
